Source: patent US12410220B2, “Modulation of mammalian cell lineage by synthetic immodulins” (priority 2021, dated 2025)
Marks after values point to notes of the source that are not given here. Peptide text beside a SMILES is read from it.

Experiments:
[1] = Ferric iron-binding assay of biotinylated immodulin peptides; conditions: N-terminally biotinylated peptide, 400 ng per well, 60 min room temperature; immX3AVD = 100
Summary of the method: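 N-terminally biotinylated peptides (400 ng/well) were tested for ferric iron binding in two formats: streptavidin-A488 complexes on Fe3+-charged NTA plates, or streptavidin-captured peptide probed with FITC-NTA·Fe3+. Each step was 60 min at room temperature with fluorescence read at 525 nm. Values are normalized to immX3AVD control (100) and averaged across both protocols.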

[2] = biological target: T1, AA111-228 DNA-binding domain of RXR-alpha (RXRa-DBD) (Homo sapiens, UniProt P19793); assay: Experiment 4A binding to RXRa-DBD; conditions: 1 ug/well RXRa-DBD; 800 ng/well SA488-labelled peptide, 60 min; background subtracted
T1 construct: purchased Abcam, Cambridge, MA
T1 sequence (P19793 111-228): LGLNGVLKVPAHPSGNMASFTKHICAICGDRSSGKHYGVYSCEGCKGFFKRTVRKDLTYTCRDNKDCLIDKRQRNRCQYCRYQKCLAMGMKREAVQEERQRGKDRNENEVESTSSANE
Method: Experiment 4A. Binding of immodulin peptides to AA111-228 DNA-binding domain of RXR-alpha (RXRa-DBD). 1 ug/well recombinant RXRa-DBD (Abcam, Cambridge, MA) was adsorbed to wells of a 96-well plate for 60 minutes at room temperature, then blocked with 200 uL 1% bovine serum albumin (BSA) in PBS buffer overnight. Plate was washed and 800 ng/well Streptavidin-Alexa 488 conjugate (SA488)-labelled immX peptide was added. The plate was incubated for 60 min at room temperature, washed and counted in a standard fluorometer (excitation/emission 485/525 nm). Background (buffer alone) was subtracted.

[3] = biological target: T2, RXR-alpha (Homo sapiens, UniProt P19793); assay: Experiment 4B binding to full length RXR-alpha; conditions: 400 ng/well protein; 800 ng/well SA488-labelled peptide, 2 hours
T2 construct: 400 ng/well full length RXR-alpha, RXR-beta, RXR-gamma or PPAR-gamma; purchased Abcam, Cambridge, MA
T2 sequence (P19793 1-462): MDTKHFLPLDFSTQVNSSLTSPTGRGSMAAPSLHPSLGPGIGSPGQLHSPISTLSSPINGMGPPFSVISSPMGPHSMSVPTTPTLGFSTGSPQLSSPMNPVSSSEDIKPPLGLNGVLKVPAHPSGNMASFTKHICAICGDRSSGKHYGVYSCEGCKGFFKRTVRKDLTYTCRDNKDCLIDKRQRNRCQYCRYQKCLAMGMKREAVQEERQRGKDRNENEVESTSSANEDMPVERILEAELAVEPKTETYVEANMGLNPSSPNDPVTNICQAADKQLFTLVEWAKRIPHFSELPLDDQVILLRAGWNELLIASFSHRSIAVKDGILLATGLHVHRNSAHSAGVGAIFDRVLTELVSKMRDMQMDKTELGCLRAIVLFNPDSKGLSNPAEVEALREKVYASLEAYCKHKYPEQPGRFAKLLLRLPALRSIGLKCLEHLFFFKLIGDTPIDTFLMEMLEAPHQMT
Method: (§1) Experiment 4B. Binding of immodulin peptides to RXR isoforms and domains. 100 ng/well recombinant human RXRa-DBD or RXRa-LBD, or 400 ng/well full length RXR-alpha, RXR-beta, RXR-gamma or PPAR-gamma (Abcam, Cambridge, MA) was adsorbed to wells of a 96-well plate for 60 minutes at room temperature, then blocked with 200 uL 1% BSA in PBS buffer overnight. The plate was washed with PBS and 800 ng/well Streptavidin-Alexa 488 conjugate (SA488)-labelled peptide was added. The plate was incubated for 2 hours at room temperature, washed and counted in a fluorometer (excitation/emission 485/525 nm). Significant binding above background is also shown (**p<0.05). […] When tested against domains of RXR-alpha, these peptides bind the DNA-binding domain (DBD) better than the ligand-binding domain (LBD).

[4] = biological target: T3, RXR-beta (Homo sapiens, UniProt P28702); assay: Experiment 4B binding to full length RXR-beta; conditions: 400 ng/well protein; 800 ng/well SA488-labelled peptide, 2 hours
T3 construct: 400 ng/well full length RXR-alpha, RXR-beta, RXR-gamma or PPAR-gamma; purchased Abcam, Cambridge, MA
T3 sequence (P28702 1-533): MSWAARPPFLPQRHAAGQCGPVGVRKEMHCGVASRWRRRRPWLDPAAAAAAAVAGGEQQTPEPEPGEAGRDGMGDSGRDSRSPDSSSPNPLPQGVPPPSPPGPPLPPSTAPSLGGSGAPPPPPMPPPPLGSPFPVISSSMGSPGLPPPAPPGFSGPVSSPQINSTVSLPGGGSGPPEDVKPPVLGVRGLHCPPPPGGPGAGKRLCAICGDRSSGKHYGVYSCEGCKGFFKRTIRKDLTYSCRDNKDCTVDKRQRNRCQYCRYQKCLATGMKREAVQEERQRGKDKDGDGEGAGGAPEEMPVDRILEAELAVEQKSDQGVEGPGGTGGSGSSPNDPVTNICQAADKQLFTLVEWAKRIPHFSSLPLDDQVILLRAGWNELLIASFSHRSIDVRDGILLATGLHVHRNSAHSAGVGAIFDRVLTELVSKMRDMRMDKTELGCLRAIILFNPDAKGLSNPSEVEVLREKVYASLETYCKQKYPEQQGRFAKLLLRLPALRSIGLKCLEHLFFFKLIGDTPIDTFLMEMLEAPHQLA
Method: as §1

[5] = Experiment 4D binding to FITC-labelled heparin; conditions: biotinylated peptide 1 ug/well; 1 ug FITC-labelled heparin, 90 minutes
Summary of the method: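 Biotinylated peptides (1 ug/well) bound to streptavidin plates for 60 min at room temperature, then 1 ug FITC-labelled heparin or hyaluronic acid in PBS added for 90 min at room temperature, in quadruplicate. After washes, fluorescence read at 488/525 nm and counts normalized to immX3 peptide binding = 100.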

| Ferric iron binding, fluorescence standardized to immX3AVD control peptide (100), Avg ± SD [1] | Fluorescence, binding to RXRa-DBD [2] | Binding to RXR-alpha relative to imm3 binding to RXR-gamma (=100) [3] | Binding to RXR-beta relative to imm3 binding (=100) [4] | Heparin binding, counts normalized for immX3 peptide binding=100 [5] | Compound |
| --- | --- | --- | --- | --- | --- |
| 71.6 ± 6.6** | 6,802±336 | 17.2 ± 0.3** | 4.0 ± 0.8 | 95.1 ± 25.7 | CC[C@H](C)[C@H](NC(=O)CNC(=O)[C@H](CCCNC(=N)N)NC(=O)[C@H](CCCCN)NC(=O)[C@H](CCCNC(=N)N)NC(=O)CNC(=O)[C@H](CCCNC(=N)N)NC(=O)[C@H](CO)NC(=O)[C@@H]1CCCN1C(=O)[C@H](CCCCN)NC(=O)[C@H](CS)NC(=O)[C@H](CCC(N)=O)NC(=O)[C@H](CCCCN)NC(=O)[C@H](CCCNC(=N)N)NC(=O)[C@H](CCCCN)NC(=O)[C@H](Cc1ccc(O)cc1)NC(=O)[C@H](Cc1ccccc1)NC(=O)CNC(=O)[C@H](CCCCN)NC(=O)[C@@H](N)CCCNC(=N)N)C(=O)N[C@@H](CS)C(=O)N[C@@H](Cc1c[nH]c2ccccc12)C(=O)O [imm5] (H-RKGFYKRKQCKPSRGRKRGICW-OH; N-terminus and C-terminus assumed) |
| 3.3 ± 1.5** | 27±31 | 3.6 ± 1.3 | 0.3 ± 1.2 | 6.8 ± 24.1 | CC(C)C[C@H](NC(=O)[C@H](C)NC(=O)[C@@H]1CCCN1C(=O)[C@H](Cc1c[nH]cn1)NC(=O)[C@H](CS)NC(=O)[C@H](CCC(N)=O)NC(=O)[C@H](CCCCN)NC(=O)[C@@H]1CCCN1C(=O)[C@H](Cc1c[nH]cn1)NC(=O)[C@H](Cc1ccccc1)NC(=O)[C@H](CC(N)=O)NC(=O)CNC(=O)[C@H](CC(N)=O)NC(=O)[C@@H](N)CCCNC(=N)N)C(=O)N[C@@H](CC(=O)O)C(=O)NCC(=O)N[C@@H](CCC(N)=O)C(=O)N[C@@H](CCCNC(=N)N)C(=O)NCC(=O)N[C@@H](CCCCN)C(=O)N[C@@H](CS)C(=O)N[C@@H](Cc1c[nH]c2ccccc12)C(=O)O [imm4] (H-RNGNFHPKQCHPALDGQRGKCW-OH; N-terminus and C-terminus assumed) |
| 65.9 ± 4.9** | 587±192 | 12.9 ± 0.5** | 4.7 ± 0.4 | 97.2 ± 17.3 | N=C(N)NCCC[C@H](NC(=O)[C@H](CCCNC(=N)N)NC(=O)[C@H](CCC(N)=O)NC(=O)CNC(=O)[C@H](CCC(N)=O)NC(=O)[C@H](CO)NC(=O)[C@H](CO)NC(=O)[C@H](CCCNC(=N)N)NC(=O)[C@H](CS)NC(=O)[C@H](CCC(N)=O)NC(=O)[C@H](CCCNC(=N)N)NC(=O)[C@H](CCCCN)NC(=O)[C@H](CCCNC(=N)N)NC(=O)[C@H](Cc1ccc(O)cc1)NC(=O)[C@H](Cc1ccccc1)NC(=O)CNC(=O)[C@H](CCCNC(=N)N)NC(=O)[C@@H](N)Cc1c[nH]cn1)C(=O)NCC(=O)N1CCC[C@H]1C(=O)N[C@@H](CS)C(=O)N[C@@H](Cc1c[nH]c2ccccc12)C(=O)O [imm6] (H-HRGFYRKRQCRSSQGQRRGPCW-OH; N-terminus and C-terminus assumed) |
| 66.7 ± 4.7** | 6,572±129 | 11.2 ± 1.0** | 2.9 ± 1.1 | 104.2 ± 22.0 | N=C(N)NCCC[C@H](NC(=O)CNC(=O)[C@H](CCCCN)NC(=O)[C@H](CO)NC(=O)[C@@H]1CCCN1C(=O)[C@H](CCCNC(=N)N)NC(=O)[C@H](CS)NC(=O)[C@H](CCC(N)=O)NC(=O)[C@H](CCCCN)NC(=O)[C@H](CCCCN)NC(=O)[C@H](CCCCN)NC(=O)[C@H](Cc1ccc(O)cc1)NC(=O)[C@H](Cc1ccccc1)NC(=O)CNC(=O)[C@H](CCCCN)NC(=O)[C@@H](N)CCCCN)C(=O)N[C@@H](CCCCN)C(=O)N[C@@H](CCCNC(=N)N)C(=O)NCC(=O)N[C@@H](Cc1ccccc1)C(=O)N[C@@H](CS)C(=O)N[C@@H](Cc1c[nH]c2ccccc12)C(=O)O [imm3] (H-KKGFYKKKQCRPSKGRKRGFCW-OH; N-terminus and C-terminus assumed) |
